In the NIST ThermoML archive (doi:10.1016/j.jct.2015.06.036):

Assay: xn = mol fraction of the nth substance listed
Details: 101 kPa, Liquid; for viscosity: Falling or rolling sphere viscometry; for speed of sound: Sing-around technique in a fixed-path interferometer; for mass density: Vibrating tube method

CCn1cc[n+](C)c1.F[B-](F)(F)F [1-ethyl-3-methylimidazolium tetrafluoroborate] + CO
Details	mass density [kg/m3]	speed of sound [m/s]	viscosity [mPa·s]
278.15 K, x1 = 0.0499	896.8	1233	0.998
278.15 K, x1 = 0.0998	965.1	1283	1.43
278.15 K, x1 = 0.1498	1019.5	1336	1.92
278.15 K, x1 = 0.1998	1062.4	1384	2.52
278.15 K, x1 = 0.3002	1127.9	1465	4.08
278.15 K, x1 = 0.4004	1174.8	1523	6.45
278.15 K, x1 = 0.5001	1209.6	1565	9.84
278.15 K, x1 = 0.6004	1237.2	1597	15.3
278.15 K, x1 = 0.6987	1258.7	1623	24.6
278.15 K, x1 = 0.8005	1277.4	1644	38.9
278.15 K, x1 = 0.8486	1284.8	1653	47.9
278.15 K, x1 = 0.8987	1292.3	1661	61.5
278.15 K, x1 = 0.9476	1298.6	1669	76.5
278.15 K, x1 = 1	1305.3	1677	101
288.15 K, x1 = 0.0499	887.8	1204	0.848
288.15 K, x1 = 0.0998	956.3	1259	1.19
288.15 K, x1 = 0.1498	1010.9	1313	1.57
288.15 K, x1 = 0.1998	1053.8	1361	2.03
288.15 K, x1 = 0.3002	1119.4	1441	3.24
288.15 K, x1 = 0.4004	1166.5	1499	5.01
288.15 K, x1 = 0.5001	1201.4	1540	7.49
288.15 K, x1 = 0.6004	1229.1	1572	11.3
288.15 K, x1 = 0.6987	1250.7	1598	17.7
288.15 K, x1 = 0.8005	1269.5	1619	26.8
288.15 K, x1 = 0.8486	1276.9	1628	32.3
288.15 K, x1 = 0.8987	1284.5	1636	40.2
288.15 K, x1 = 0.9476	1290.9	1644	48.7
288.15 K, x1 = 1	1297.6	1653	62
298.15 K, x1 = 0.0499	878.7	1176	0.732
298.15 K, x1 = 0.0998	947.5	1233	1.01
298.15 K, x1 = 0.1498	1002.2	1289	1.32
298.15 K, x1 = 0.1998	1045.3	1337	1.69
298.15 K, x1 = 0.3002	1111	1418	2.66
298.15 K, x1 = 0.4004	1158.2	1475	4.03
298.15 K, x1 = 0.5001	1193.3	1516	5.91
298.15 K, x1 = 0.6004	1221.1	1548	8.69
298.15 K, x1 = 0.6987	1242.8	1575	13.3
298.15 K, x1 = 0.8005	1261.7	1596	19.5
298.15 K, x1 = 0.8486	1269.2	1605	22.9
298.15 K, x1 = 0.8987	1276.8	1613	28
298.15 K, x1 = 0.9476	1283.2	1621	33.2
298.15 K, x1 = 1	1290	1629	41
308.15 K, x1 = 0.0499	869.6	1147	0.642
308.15 K, x1 = 0.0998	938.7	1208	0.872
308.15 K, x1 = 0.1498	993.6	1265	1.13
308.15 K, x1 = 0.1998	1036.8	1314	1.44
308.15 K, x1 = 0.3002	1102.7	1394	2.23
308.15 K, x1 = 0.4004	1150	1451	3.33
308.15 K, x1 = 0.5001	1185.3	1493	4.79
308.15 K, x1 = 0.6004	1213.2	1525	6.91
308.15 K, x1 = 0.6987	1235	1551	10.4
308.15 K, x1 = 0.8005	1254	1573	14.9
308.15 K, x1 = 0.8486	1261.5	1581	17.1
308.15 K, x1 = 0.8987	1269.1	1589	20.5
308.15 K, x1 = 0.9476	1275.6	1598	23.8
308.15 K, x1 = 1	1282.4	1606	28.8
318.15 K, x1 = 0.0499	860.5	1119	0.57
318.15 K, x1 = 0.0998	929.8	1182	0.772
318.15 K, x1 = 0.1498	984.9	1241	0.979
318.15 K, x1 = 0.1998	1028.3	1290	1.24
318.15 K, x1 = 0.3002	1094.4	1371	1.9
318.15 K, x1 = 0.4004	1141.9	1428	2.81
318.15 K, x1 = 0.5001	1177.3	1470	3.98
318.15 K, x1 = 0.6004	1205.4	1502	5.65
318.15 K, x1 = 0.6987	1227.2	1528	8.37
318.15 K, x1 = 0.8005	1246.3	1550	11.7
318.15 K, x1 = 0.8486	1253.9	1559	13.2
318.15 K, x1 = 0.8987	1261.6	1567	15.7
318.15 K, x1 = 0.9476	1268	1575	17.8
318.15 K, x1 = 1	1274.9	1583	21.2
